Measurements as given in US20070248995A1, “Molecules” (priority 2004, published 2007).
Where two headings read alike, the source gives them in different places.

Assays:
rat NK1r = target: T1, rat NK1r (Rattus norvegicus, UniProt P14600); assay: Inhibition of NK1 receptor activation, intracellular Ca2+ mobilization (FLIPR) in CHO cells; assay type: cell-based; settings: pKB ± SD, submaximal (60%) concentration of Substance P
T1 construct: expressed in transfected cells
Experimental: (§1) The activity of a compound to inhibit NK1r activation measured as NK1r-mediated increase in intracellular Ca^2+ was assessed by the following procedure:
(§2) Before the FLIPR assay the cells of each 96-well plate were loaded with the Ca^2+-sensitive dye Fluo-3 (TEFLABS 0116) at 4 μM in a loading media consisting of Nut Mix F12 (HAM) with Glutamax I, 22 mM HEPES, 2.5 mM Probenicid (Sigma P-8761) and 0.04% Pluronic F-127 (Sigma P-2443) and kept in the dark for 1 hour in a 37° C. CO2-incubator. The cells were then washed three times in assay buffer (Hanks balanced salt solution (HBSS) containing 20 mM HEPES, 2.5 mM Probenicid and 0.1% BSA) using a multi-channel pipette leaving them in 150 μl at the end of the last wash. Serial dilutions of a test compound in assay buffer (final DMSO concentration kept below 1%) were automatically pipetted by FLIPR (Fluorometric Imaging Plate Reader) into each test well and the fluorescence intensity was recorded (excitation 488 nm and emission 530 nm) by the FLIPR CCD camera for a 2-min pre-incubation period. 50 μl of the Substance P (NK1 specific), NKA (NK2 specific), or Pro-7-NKB (NK3 specific) agonist solution (final concentration equivalent to an approximate EC60 concentration) was then added by FLIPR into each well already containing 200 μl assay buffer (containing the test compound or vehicle) and the fluorescence was continuously monitored for another 2 min. The response was measured as the peak relative fluorescence after agonist addition and IC50s were calculated from ten-point concentration-response curves for each compound. The IC50s were then converted to pKB values with the following formula: KB=IC50/1+(EC60 conc. of agonist used in assay/EC50 agonist) pKB=−log KB Binding Assay for NK1 Receptors

human NK1r [1] = target: T2, human NK1r (Homo sapiens, UniProt P25103)
Experimental: Cells were detached with Accutase® solution, harvested in PBS containing 5% FBS by centrifugation, washed twice in PBS and resuspended to a concentration of 1×10^8 cells/ml in Tris-HCl 50 mM, KCl 300 mM, EDTA-N2 10 mM pH 7.4 (4° C.). Cell suspensions were homogenized with a UltraTurrax 30 s 12.000 rpm. The homogenates were centrifuged at 38,000×g (4° C.) and the pellet resuspended in Tris-HCl 50 mM pH 7.4. The homogenization was repeated once and the homogenates were incubated on ice for 45 min. The homogenates were again centrifuged as described above and resuspended in Tris-HCl 50 mM pH 7.4. This centrifugation step was repeated 3 times in total. […]
(§3) The membranes were then collected by rapid filtration on Filtermat B(Wallac), presoaked in 0.1% BSA and 0.3% Polyethyleneimine (Sigma P-3143), using a Micro 96 Harvester (Skatron Instruments, Norway). […] Meltilex scintillator sheets were melted on to filters using a Microsealer (Wallac, Finland) and the filters were counted in a β-Liquid Scintillation Counter (1450 Microbeta, Wallac, Finland).
(§4) The Ki value for the unlabeled ligand was calculated using the Cheng-Prusoff equation (Biochem. Pharmacol. 22:3099-3108, 1973), where L is the concentration of the radioactive ligand used and Kd is the affinity of the radioactive ligand for the receptor, determined by saturation binding. […]

human NK1r [2] = target: T2, human NK1r; assay: Inhibition of NK1 receptor activation, intracellular Ca2+ mobilization (FLIPR) in CHO cells; assay type: cell-based; design: expressed in transfected cells; settings: pKB ± SD, submaximal (60%) concentration of Substance P
Experimental: as §1
CO2-incubator. The cells were then washed three times in assay buffer (Hanks balanced salt solution (HBSS) containing 20 mM HEPES, 2.5 mM Probenicid and 0.1% BSA) using a multi-channel pipette leaving them in 150 μl at the end of the last wash. […] 50 μl of the Substance P (NK1 specific), NKA (NK2 specific), or Pro-7-NKB (NK3 specific) agonist solution (final concentration equivalent to an approximate EC60 concentration) was then added by FLIPR into each well already containing 200 μl assay buffer (containing the test compound or vehicle) and the fluorescence was continuously monitored for another 2 min. The response was measured as the peak relative fluorescence after agonist addition and IC50s were calculated from ten-point concentration-response curves for each compound. The IC50s were then converted to pKB values with the following formula: KB=IC50/1+(EC60 conc. of agonist used in assay/EC50 agonist) pKB=−log KB Binding Assay for NK1 Receptors

gerbil NK1r [3] = target: T3, gerbil NK1r (Meriones unguiculatus, UniProt Q5DUB1)
Experimental: Cells were detached with Accutase® solution, harvested in PBS containing 5% FBS by centrifugation, washed twice in PBS and resuspended to a concentration of 1×10^8 cells/ml in Tris-HCl 50 mM, KCl 300 mM, EDTA-N2 10 mM pH 7.4 (4° C.). Cell suspensions were homogenized with a UltraTurrax 30 s 12.000 rpm. The homogenates were centrifuged at 38,000×g (4° C.) and the pellet resuspended in Tris-HCl 50 mM pH 7.4. The homogenization was repeated once and the homogenates were incubated on ice for 45 min. The homogenates were again centrifuged as described above and resuspended in Tris-HCl 50 mM pH 7.4. This centrifugation step was repeated 3 times in total. After the last centrifugation step the pellet was resuspended in Tris-HCl 50 mM and homogenized with Dual Potter, 10 strokes to a homogenous solution, and aliquots were removed for protein determination. Membranes were aliquoted and frozen at −80° C. until use.
The radioligand binding assay was performed at room temperature in 96-well microtiter plates (No-binding Surface Plates, Corning 3600) with a final assay volume of 200 μl/well in incubation buffer (50 mM Tris buffer (pH 7.4 RT) containing 0.1% BSA, 40 mg/L Bacitracin, complete EDTA-free protease inhibitor cocktail tablets 20 pills/L (Roche) and 3 mM MnCl2).
Competition binding curves were done by adding increasing amounts of the test compound. […]
as §3, §4

gerbil NK1r [4] = target: T3, gerbil NK1r; assay: Inhibition of NK1 receptor activation, intracellular Ca2+ mobilization (FLIPR) in CHO cells; assay type: cell-based; design: Full-length PCR was performed using primers #NK1-16 and #NK1-17; expressed in transfected cells; settings: pKB ± SD, submaximal (60%) concentration of Substance P
Experimental: as §1, §2

gerbil NK1r [5] = target: T3, gerbil NK1r; assay: Gerbil foot tap (GFT, NK1r-specific test model); assay type: in vivo, Mongolian gerbil; design: tissue Charles River, Germany (animals); host or cells: living Mongolian gerbil, central nervous system (in vivo); settings: from brain homogenate concentration of antagonist at 50% inhibition, used in the Cheng-Prusoff equation
Excerpt: Male Mongolian gerbils (60-80 g) were purchased from Charles River, Germany. On arrival, they were housed in groups of ten, with food and water ad libitum in temperature- and humidity-controlled holding rooms. The animals were allowed at least 7 days to acclimatize to the housing conditions before experiments. Each animal was used only once and killed immediately after the experiment by heart punctuation or a lethal overdose of pentobarbital sodium.
Gerbils were anaesthetized with isoflurane. Potential CNS-permeable NK1 receptor antagonists were administered intraperitoneally, intravenously or subcutaneously.
The gerbils were lightly anaesthetized using isoflurane and a small incision was made in the skin over bregma. 10 pmol of ASMSP, a selective NK1receptor agonist, was administered icv in a volume of 5 μl using a Hamilton syringe with a needle 4 mm long. The wound was clamped shut and the animal was placed in a small plastic cage and allowed to wake up. The cage was placed on a piece of plastic tubing filled with water and connected to a computer via a pressure transducer. The number of hind feet taps was recorded.

T3 sequence (Q5DUB1 whole entry): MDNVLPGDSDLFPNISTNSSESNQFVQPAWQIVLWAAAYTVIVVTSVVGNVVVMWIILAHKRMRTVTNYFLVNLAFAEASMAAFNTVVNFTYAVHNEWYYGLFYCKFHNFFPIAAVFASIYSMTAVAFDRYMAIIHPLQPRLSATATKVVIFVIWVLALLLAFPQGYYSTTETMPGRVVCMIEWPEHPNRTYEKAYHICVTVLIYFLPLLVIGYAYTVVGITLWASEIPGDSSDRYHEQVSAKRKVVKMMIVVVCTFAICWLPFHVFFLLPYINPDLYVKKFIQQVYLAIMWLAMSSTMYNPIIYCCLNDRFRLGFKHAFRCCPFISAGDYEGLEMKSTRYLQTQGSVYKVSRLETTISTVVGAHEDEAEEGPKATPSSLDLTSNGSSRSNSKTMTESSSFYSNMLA
T1 sequence (P14600 whole entry): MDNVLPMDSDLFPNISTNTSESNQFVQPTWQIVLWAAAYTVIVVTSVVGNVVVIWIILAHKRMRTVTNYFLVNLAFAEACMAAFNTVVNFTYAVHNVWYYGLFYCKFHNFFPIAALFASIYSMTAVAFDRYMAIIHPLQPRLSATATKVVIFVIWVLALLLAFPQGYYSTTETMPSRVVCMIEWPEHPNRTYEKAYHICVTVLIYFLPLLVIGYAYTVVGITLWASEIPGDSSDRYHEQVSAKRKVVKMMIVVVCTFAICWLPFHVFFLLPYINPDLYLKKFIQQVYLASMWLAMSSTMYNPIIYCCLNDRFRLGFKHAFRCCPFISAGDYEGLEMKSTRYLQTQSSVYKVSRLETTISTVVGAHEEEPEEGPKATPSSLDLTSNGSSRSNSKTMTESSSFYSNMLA
T2 sequence (P25103 whole entry): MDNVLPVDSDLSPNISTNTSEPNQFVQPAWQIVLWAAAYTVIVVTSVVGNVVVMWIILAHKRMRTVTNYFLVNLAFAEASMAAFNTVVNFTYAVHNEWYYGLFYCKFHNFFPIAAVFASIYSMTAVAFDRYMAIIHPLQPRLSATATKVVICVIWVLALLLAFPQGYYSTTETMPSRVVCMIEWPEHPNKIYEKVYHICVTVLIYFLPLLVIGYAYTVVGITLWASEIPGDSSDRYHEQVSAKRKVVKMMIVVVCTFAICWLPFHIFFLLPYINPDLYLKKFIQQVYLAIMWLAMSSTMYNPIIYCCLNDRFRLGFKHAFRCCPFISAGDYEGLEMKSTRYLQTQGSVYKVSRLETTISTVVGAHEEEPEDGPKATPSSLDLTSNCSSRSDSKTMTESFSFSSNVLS

Row | rat NK1r pKB (rat NK1r) | Ki (human NK1r [1]) | human NK1r pKB (human NK1r [2]) | Ki (gerbil NK1r [3]; read-out: Gerbil NK1 Ki, competition binding, CHO cell membranes) | gerbil NK1r pKB (gerbil NK1r [4]) | Compound | gerbil NK1r pKBapp. (in vivo GFT apparent pKB) (gerbil NK1r [5]) | Kb (rat NK1r) | Ki (gerbil NK1r [3]) | Kb (gerbil NK1r [4])
1 | <6 | 0.31 nM | 8.53 ± 0.41 | 0.38 nM | 9.00 ± 0.25 | CN(C[C@@H](CCN1CCC(c2ccccc2[S@+](C)[O-])CC1)c1ccc(Cl)c(Cl)c1)C(=O)c1cc(C#N)cc2ccccc12 [ZD 6021] | 8.5 |  |  | 
2 |  |  |  |  |  | C[C@@H](O[C@H]1OCCN(Cc2n[nH]c(=O)[nH]2)[C@H]1c1ccc(F)cc1)c1cc(C(F)(F)F)cc(C(F)(F)F)c1 [MK 869, aprepitant] | 8.9 | 55 nM | 0.16 nM | 1.55 nM
3 |  |  |  |  |  | COc1ccccc1CN[C@H]1CCCN[C@H]1c1ccccc1 [CP 99994] | 8.1 | 1230 nM | 0.81 nM | 1.15 nM
